In US9114163B2, “Medication against breast cancer and related diseases” (MaBel GmbH, priority 2006, dated 2015):

Experiments:
[1] = system: MCF-7 cells; experiment: Inhibition of MCF-7 cell proliferation (counting of vital cells); type: cell-based, human; settings: 10^-7 M, 10^-8 M, 10^-9 M; cell counts after 3, 6 and 9 days; compared with DHT and control
Procedure: MCF-7 cells were grown in RPMI 1640 medium at 37° C. to a cell number of about 1*10^5 cells/ml. Then, in quadruple identical MCF-7 cell samples, there were added either dihydrotestosterone (DHT) or 4-hydroxytestosterone (4-OHT), to obtain different concentrations thereof, namely 10^−7 M, 10^−8 M or 10^−9 M, and further growth of cells were determined by counting of vital cells. During the course of incubation at 37° C., cell counting were performed after 3, 6 and 9 days. For control, growth of MCF-7 cells were determined without addition of an active agent.
The results on an inhibition of MCF-7 cell proliferation are shown in FIGS. 1A, 1B and 1C for the compound concentrations of 10^−7 M, 10^−8 M and 10^−9 M of either DHT or 4-OHT, respectively, and compared with the control.

[2] = system: malign breast carcinoma (C. mammae); experiment: Double blind clinical test, topical cream, patients with malign breast carcinoma; type: in vivo, human; settings: for Clinical Remission: topical cream once a day
Procedure: (§1) Double blind clinical tests were conducted with a group of 10 female patients. In this clinical testing, particular attention was paid to hormone receptor statuses of patients' target breast cancer tissue regarding progesterone receptor (PR) and in particular regarding estrogen receptor (ER); The cancers of the patients were assumed to be predominantly androgen receptor (AR) positive. Among this group, six patients had histologically ascertained malign breast carcinoma (C. mammae). […] In a sixth patient, the presence of a malign breast carcinoma was ascertained, but the amount of cancer tissue was too low to determine receptor status.
(§2) All 10 female patients were topically and locally treated using 4-hydroxytestosterone as active agent, by administering of a cream as described in Example 2 locally to target skin portions of the breasts. After continuing daily topical administration once a day during an administration period of 3 months, clinical investigations on therapeutic effects were performed.
The results of the 6 patients having malign breast carcinoma are shown in the following Table 1, together with the receptor status determined for patient nos. 1 to 5.

[3] = system: normal or mastopathic breast tissue; experiment: Double blind clinical test, topical cream, patients with non-malign breast tissue; type: in vivo, human; settings: 4 patients with non-malign disease states, topical administration
Procedure: as §1, §2

## C[C@]12CC[C@H]3[C@@H](CCC4=C(O)C(=O)CC[C@@]43C)[C@@H]1CC[C@@H]2O [4-hydroxytestosterone, 4,17β-dihydroxyandrost-4-ene-3-one]
[1]
  inhibitory effect on MCF-7 cell proliferation: significantly enhanced inhibitory effect
[2]; Patient # 1, ER 0, PR 0, Her2neu 0, 3 months
  Clinical Remission: yes
[2]; Patient # 3, ER 0, PR 0, Her2neu 0, 3 months
  Clinical Remission: yes
[2]; Patient # 6, receptor status not determined, 3 months
  Clinical Remission: yes
[2]; clinical study, ER negative tumours, topical cream, 3 months
  treatment of ER negative cancer cells: effectively treated
[2]; clinical study, topical cream, 3 months
  efficacy in shrinking cancerous tissues: excellent efficacy in shrinking cancerous tissues
[2]; of 6 patients with malign breast carcinoma, those so far subjected to post-treatment investigation, 3 months topical
  patients with noticeable remission of breast cancer tissues as determined by mammography: three
[3]
  tissue reduction of normal or mastopathic appearing tissues: clear tendency for tissue reduction
